Experimental data taken from paper PMC9145885, “Synthesis of PP2A-Activating PF-543 Derivatives and Investigation of Their Inhibitory Effects on Pancreatic Cancer Cells” (Molecules, 2022).

Key:
SK1 = system: SK1; set-up: method as in PMID 30889352; conditions: cited from earlier work
SK2 = system: SK2; set-up: method as in PMID 30889352; conditions: cited from earlier work
MIA PaCa2 cells [1] = assay: Cell viability / cytotoxic effect in MIA PaCa2 cells (EZ-CYTOX/MTT); type: cell-based; conditions: Homo sapiens, MIA PaCa-2, 2.5-40 µM, 24 h, relative IC50
Description: The human pancreatic ductal epithelial cell lines MIA Paca2, PANC-1 were maintained in DMEM media with 10% fetal bovine serum (FBS), 100 U/mL penicillin, and 100 µg/mL streptomycin at 37 °C in a humidified 5% CO2/95% air atmosphere. Cells were seeded in 96-well plates at a density of 3000 cells/100 μL/well and incubated for 24 h. The cells were then incubated in a culture medium containing synthetic compounds. Following 24 h of incubation, the cell viability was determined using an EZ-CYTOX kit (DaeilLab Service, Seoul, Korea) according to the manufacturer’s protocol (n = 12).
Supplementary Figure 1. Relative IC50 determination of Compound 5, Compound 10, PF-543, and FTY720. MIAPaCa2 cells were seeded in 96 well plates and treated with 2.5-40 µ M of compounds for 24h. Cell viability was assessed using MTT assay, and Relative IC50 was determined using Graph pad prism software. The result is representative of three independent experiments and data are presented as mean ± SD. *** p < 0.001 compared with non-treated […]
(1 picture or pasted object on this page, not shown here)

MIA PaCa2 cells [2] = assay: Ceramide, S1P and sphingosine levels by ELISA in MIA PaCa2 cells; type: cell-based, human; conditions: 20 µM
Description: Ceramide, sphingosine, and S1P level were performed as protocols recommended by Mybiosource using the ceramide, sphingosine, and S1P ELISA kit (MyBiosource Inc., San Diego, CA, USA). Ceramide and sphingosine S1P measurements were tested with proteins that were centrifuged and collected by repeating freezing and thawing from three to five times after adding PBS to cells.

MIA PaCa2 cells [3] = assay: Mitochondrial membrane potential, JC-10 staining; type: cell-based, human; conditions: 20 µM
Description: To measure the degree of MMP change of cancer cells, 20 μM JC-10 dye and assay buffer (Enzo Co., New York, NY, USA) were added to the cells cultured for 24 h and mixed until the cells were completely dissolved. Subsequently, the cells were incubated in the dark for 30 min at room temperature. The solutions were protected from light and analyzed by using flow cytometry.

MIA PaCa2 cells [4] = assay: Western blot of apoptosis-related proteins; type: cell-based, human; conditions: 20 µM, 24 h
Description: Cell extracts from MIA Paca2 cells were determined by BCA Protein Assay Kit (Thermo Scientific) according to the manufacturer’s instructions. Separate 20–30 μg protein by electrophoresis using Tris-Glycine gel and transfer to PVDF membranes. After transferring and blocking, the membrane was incubated with the primary antibody in TBS-T buffer containing 5% skim milk overnight at 4 °C. Then, the membrane was washed three times with TBS-T, and the secondary antibody was incubated. Chemiluminescence detection was performed using a Western blot detection kit (Milipore). Bax, Bcl-2, Caspase-3, PARP, AKT, p-AKT, ERK, and p-ERK were used for Western blot analysis. Internal controls were detected using Actin antibody.

PP2A = PP2A immunoprecipitation phosphatase activity assay in MIA PaCa2 cells; type: cell-based, human; conditions: 20 µM
Description: PP2A activity assay was a PP2A immunoprecipitation phosphatase assay kit operated according to the manufacturer’s instruction. Briefly, a prepared protein aliquot was incubated with anti-PP2A subunit C-antibody and protein A agarose slurry at 4 °C for 2–3 h, and then phosphopeptide was added. Samples were recorded by Thermo Scientific Multiskan GO.

[5] = In vitro metabolic stability in dog liver microsomes; type: in vitro ADME; conditions: NADPH, 30 min
[6] = In vitro metabolic stability in rat liver microsomes; type: in vitro ADME; conditions: NADPH, 30 min
[7] = In vitro metabolic stability in mouse liver microsomes; type: in vitro ADME; conditions: NADPH, 30 min
[8] = In vitro metabolic stability in human liver microsomes; conditions: human liver microsomes 0.5 mg/mL, NADPH, 30 min
Description: Microsomal incubations were conducted in triplicate in 0.1 M potassium phosphate buffer (pH 7.4) in a clean 1.5 mL Eppendorf tube. […] The final incubation mixtures contained 0.5 mg/mL HLM, 0.1 M potassium phosphate buffer (pH 7.4), NADPH regenerating system (1 mM NADPH, 10 mM MgCl2). HLM was added, and the mixture was pre-incubated at 37 °C in a shaking incubator at approximately 350 rpm for 5 min under a Thermo mixer (Eppendorf., Hamburg, Germany). Reactions were initiated by the addition of 1 mM NADPH and were then quenched by adding 40 µL of ice-cold acetonitrile containing 10 µM chlorpropamide (CPP) as an internal standard at 0 and 30 min. The incubation mixtures were then centrifuged at 15,000 g for 5 min at 4 °C. A 2 µL aliquot of the supernatant was directly injected into the LC-MS/MS system. The LC-MS/MS system consisted of the Nexera XR HPLC system (Shimadzu Co., Kyoto, Japan) coupled to the TSQ Vantage triple quadrupole mass spectrometer equipped with Xcalibur version 1.1.1 (Thermo Fisher Scientific Inc., Waltham, MA, USA).

SPHK1 = molecular target: T1, SPHK1 (Homo sapiens, UniProt Q9NYA1); assay: Sphingosine kinase 1 activity assay (Adapta screening system); type: biochemical; conditions: 20 µM compound
T1 construct: purchased Thermo Fisher Scientific
Description: (§1) SK 1/2 activity was measured using 20 μM PF-543 and compounds 1–10 using the AdaptaTM screening system (Thermo Fisher Scientific system). Sphingosine kinase 1 activity assay used 0.04–0.16 ng SPHK1, 50 μM sphingosine lipid substrate in 32.5 mM HEPES pH 7.5, 0.005% BRIJ 35, 5 mM MgCl2, 0.5 mM EGTA. Sphingosine kinase 2 activity assay detected 35–140 ng SPHK2, 50 μM sphingosine lipid substrate in 32.5 mM HEPES pH 7.5, 0.5 mM EGTA, and 1.5 mM MgCl2.

SPHK2 = molecular target: T2, SPHK2 (Homo sapiens, UniProt Q9NRA0); assay: Sphingosine kinase 2 activity assay (Adapta screening system); type: biochemical; conditions: 20 µM compound
T2 construct: purchased Thermo Fisher Scientific
T2 sequence (Q9NRA0 1-654): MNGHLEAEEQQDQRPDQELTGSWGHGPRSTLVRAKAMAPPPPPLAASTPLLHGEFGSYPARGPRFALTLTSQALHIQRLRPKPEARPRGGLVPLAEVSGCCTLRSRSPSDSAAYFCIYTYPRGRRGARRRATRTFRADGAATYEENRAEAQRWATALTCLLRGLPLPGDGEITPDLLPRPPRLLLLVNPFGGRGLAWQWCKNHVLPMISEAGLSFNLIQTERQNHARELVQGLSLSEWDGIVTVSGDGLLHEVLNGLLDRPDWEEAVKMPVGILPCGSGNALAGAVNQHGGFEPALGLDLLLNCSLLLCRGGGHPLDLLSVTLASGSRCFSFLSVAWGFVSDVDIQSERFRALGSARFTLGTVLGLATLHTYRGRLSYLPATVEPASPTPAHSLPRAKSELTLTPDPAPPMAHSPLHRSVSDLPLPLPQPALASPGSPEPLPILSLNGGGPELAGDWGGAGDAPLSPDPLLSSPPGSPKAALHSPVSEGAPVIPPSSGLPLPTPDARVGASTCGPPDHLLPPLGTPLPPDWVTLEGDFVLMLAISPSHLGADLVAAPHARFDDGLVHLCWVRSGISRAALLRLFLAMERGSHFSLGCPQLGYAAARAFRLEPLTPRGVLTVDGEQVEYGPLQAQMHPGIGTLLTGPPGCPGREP
Description: as §1

MIA PaCa2 cells [9] = assay: Annexin-V apoptosis assay (flow cytometry); type: cell-based, human; conditions: 20 µM
Description: Cell apoptosis assay was determined using annexin V- FITC and propidium iodide (PI) staining, as described in manufacturer instruction (BioBud, Gyeonggi-do, Korea). Briefly, the cells were resuspended in binding buffer and then incubated with annexin-V-FITC and propidium iodide at room temperature. After incubation, stained cells were analyzed by MACSQuant Analyzer 10 Flow Cytometer (Miltenyi Biotec, Bergisch Gladbach, Germany). The experiment was conducted three times independently (n = 6).

T1 sequence (Q9NYA1 whole entry): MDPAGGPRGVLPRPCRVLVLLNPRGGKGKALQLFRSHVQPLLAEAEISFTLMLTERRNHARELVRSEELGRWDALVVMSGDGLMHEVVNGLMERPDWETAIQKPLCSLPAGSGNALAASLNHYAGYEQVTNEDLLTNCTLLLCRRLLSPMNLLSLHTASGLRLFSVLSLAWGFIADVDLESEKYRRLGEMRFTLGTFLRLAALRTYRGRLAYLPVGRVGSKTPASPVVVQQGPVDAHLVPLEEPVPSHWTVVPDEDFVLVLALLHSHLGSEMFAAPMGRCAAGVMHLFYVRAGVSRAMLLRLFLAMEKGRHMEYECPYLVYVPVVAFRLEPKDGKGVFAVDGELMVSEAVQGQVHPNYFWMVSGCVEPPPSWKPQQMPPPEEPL

In vitro stability, Dog (%) [5] [%] | In vitro stability, Rat (%) [6] [%] | In vitro stability, Mouse (%) [7] [%] | In vitro stability, Human (%) [8] [%] | SK1-inhibitory effect (SPHK1) | SK2-inhibitory effect (SPHK2) | SMILES | IC50 (SK1) [µM] | IC50 (SK2) [µM] | IC50 (MIA PaCa2 cells [1]) [µM] | S1P level (MIA PaCa2 cells [2]) | mitochondrial membrane potential (ratio of red to green fluorescence, JC-10) (MIA PaCa2 cells [3]) | expression of pro-apoptotic proteins (cleaved PARP, cleaved caspase-3) (MIA PaCa2 cells [4]) | PP2A activity (PP2A) | ceramide level (MIA PaCa2 cells [2]) | sphingosine level (MIA PaCa2 cells [2]) | apoptotic effect (annexin-V) (MIA PaCa2 cells [9]) | expression of anti-apoptotic protein Bcl-2 (MIA PaCa2 cells [4])
– | – | – | – | – | – | OC[C@H]1CCCN1Cc1ccc(COc2cccc(OCc3ccc(Cl)cc3)c2)cc1 [compound 55] | 4.13 | 0.041 | – | – | – | – | – | – | – | – | –
40.8 | 27.6 | 17.9 | 45.4 | – | – | Cc1cc(Cn2cc(-c3ccccc3)nn2)cc(OCc2ccc(CN3CCC(CO)CC3)cc2)c1 [Compound 5, (1-(4-((3-Methyl-5-((4-phenyl-1H-1,2,3-triazol-1-yl)methyl)phenoxy)methyl)benzyl)piperidin-4-yl)methanol] | – | – | 26.1 | increased the S1P level | significantly reduced the mitochondrial membrane potential | insignificant compared to the compound 10 treatment group | little effect on PP2A | – | – | – | –
– | – | – | – | – | – | CCCCCCCCc1ccc(CCC(N)(CO)CO)cc1 [FTY720, reference compound] | – | – | 9.57 | – | – | – | – | – | – | – | –
58.3 | 53.3 | 33.3 | 66.7 | inhibited both SK1 and SK2 | inhibited both SK1 and SK2 | CCCCCCCCc1cn(Cc2cc(C)cc(OCc3ccc(CN4CCC(CO)CC4)cc3)c2)nn1 [Compound 10, (1-(4-((3-Methyl-5-((4-octyl-1H-1,2,3-triazol-1-yl)methyl)phenoxy)methyl)benzyl)piperidin-4-yl)methanol] | – | – | 11.1 | reduced the levels of S1P and sphingosine | significantly reduced the mitochondrial membrane potential | cleaved form of PARP and caspase-3 increased | activated PP2A | the ceramide level increased | reduced the levels of S1P and sphingosine | high apoptotic effect | Bcl-2 decreased

SMILES | In vitro stability, Dog (%) [5] [%] | In vitro stability, Rat (%) [6] [%] | In vitro stability, Mouse (%) [7] [%] | In vitro stability, Human (%) [8] [%] | SK1-inhibitory effect (SPHK1) | SK2-inhibitory effect (SPHK2) | IC50 (SK1) [µM] | IC50 (SK2) [µM] | IC50 (MIA PaCa2 cells [1]) [µM] | S1P level (MIA PaCa2 cells [2]) | mitochondrial membrane potential (ratio of red to green fluorescence, JC-10) (MIA PaCa2 cells [3]) | expression of pro-apoptotic proteins (cleaved PARP, cleaved caspase-3) (MIA PaCa2 cells [4]) | PP2A activity (PP2A) | ceramide level (MIA PaCa2 cells [2]) | sphingosine level (MIA PaCa2 cells [2]) | apoptotic effect (annexin-V) (MIA PaCa2 cells [9]) | expression of anti-apoptotic protein Bcl-2 (MIA PaCa2 cells [4])
Cc1cc(CS(=O)(=O)c2ccccc2)cc(OCc2ccc(CN3CCC[C@@H]3CO)cc2)c1 [PF-543] | 2.9 | 4.7 | 7.5 | – | – | – | – | – | – | reduce the level of S1P | significantly reduced the mitochondrial membrane potential | – | also activated PP2A | did not significantly change the levels of ceramide and sphingosine | did not significantly change the levels of ceramide and sphingosine | – | –
